Where two headings read alike, the source gives them in different places.
Tested on: diarrhea-predominant IBS subjects
Format: in vivo, human
Conditions: for TEAE incidence: constipation / TEAE incidence: nausea: 3007 Study
Method: The study was performed in approximately 150 study centers. Approximately 1600 eligible subjects were to be given cilansetron 2 mg TID. At Visit 1, pre-treatment assessments were conducted. […] Subjects were to return to the study site one month later for Visit 3 (Day 31) for their first interim assessment. […] All subjects who discontinued from the study were to have the same post-study assessments required at Visit 7 performed at their early termination visit. […]
Stool specimens were analyzed at every visit for occult blood. An independent GERB had been established to provide advice on GI AEs during the course of the study.
Adverse events were assessed at Baseline, at each clinic visit, and at the end of the study (Month 12 or the early termination visit). All AEs, which occurred during the study were followed up in accordance with good medical practice until resolved or judged no longer clinically significant, or if a condition was chronic, until fully characterized. Adverse events could occur in the specified follow-up period and, regardless of the interval since the last administration of the study medication, were treated in the same manner as an AE which occurred during the treatment with study medication. Each AE was evaluated for duration, severity, seriousness, and causal relationship to the investigational drug. The action taken and the outcome were also recorded.
Specifically, subjects who were lost to follow-up and had no post-Baseline contact with the site were excluded from the Safety population. The subjects who discontinued from the study due to lost to follow-up were identified based on the information collected on the study termination CRF page.
After the pretreatment assessment at Visit 1 (Days […] to −3), subjects were to return to the study site for a Baseline assessment and start the treatment at Visit 2 (Day 1).
For the by time-interval analyses of disposition, prevalence of AEs, and of markedly abnormal and predefined changes in laboratory values, vital signs, and ECGs, the following interval windows were used:
Adverse events that were already present prior to the first dose of cilansetron study medication but increased in severity afterwards were considered as treatment-emergent.
The 5% cutoff point was based on the incidence within higher level terms.
Subjects were counted at most once for each primary system organ class and preferred term. Serious AEs that resolved prior to receiving study medication or occurred more than 30 days after the last dose of study medication were not included in the incidence tables. A listing of all SAEs is presented; SAEs with onset prior to receiving study medication or more than 30 days after discontinuation of study medication were flagged. The listing presents lower level term and preferred term of the SAE, severity, action taken, outcome, and relationship of the SAE, start and stop date of the SAE, study day of onset of the SAE, age, race, and sex.

[1] = 2 mg, Safety Population, 3008, under Neoplasms Benign, Malignant and Unspecified
[2] = 2 mg, Safety Population, 3008, under Pregnancy, Puerperium and Perinatal Conditions
[3] = 2 mg, Safety Population, 3008, under Social Circumstances
[4] = 2 mg, Safety Population, 3008, under Surgical and Medical Procedures
[5] = 2 mg, Safety Population, 3008, under Vascular Disorders

Cc1nccn1C[C@H]1CCc2c(c3cccc4c3n2CCC4)C1=O [cilansetron, (R)-(−)-4,5,6,8,9,10-hexahydro-10-[(2-methyl-1H-imidazol-1-yl)methyl]-11H-pyrido-[3,2,1-jk]-carbazol-11-one]
5 (<1%) n (%): TEAE incidence: Anal Fissure (Cilansetron 2 mg, N=1454) | TEAE incidence: Blood Bilirubin Increased (Cilansetron 2 mg, N=1454) | TEAE incidence: Blood Pressure Increased (Cilansetron 2 mg, N=1454) | TEAE incidence: Body Temperature Increased (Cilansetron 2 mg, N=1454)
8 (<1%) n (%): TEAE incidence: Abdominal Pain Aggravated (Cilansetron 2 mg, N=1454) | TEAE incidence: Anal and Rectal Disorders NEC (Cilansetron 2 mg, N=1454)
3%: TEAE incidence: nausea (males)
4 (<1%) n (%): TEAE incidence: Hypertension Aggravated [5] | TEAE incidence: Phlebitis NEC [5]
5%: TEAE incidence: nausea (all subjects)
19%: TEAE incidence: constipation (females)
11 (<1%) n (%): TEAE incidence: Blood Triglycerides Increased (Cilansetron 2 mg, N=1454) | TEAE incidence: Blood Urine Present (Cilansetron 2 mg, N=1454)
57 (4%) n (%): TEAE incidence: Abdominal Distension (Cilansetron 2 mg, N=1454)
31 (2%) n (%): TEAE incidence: Blood Creatine Phosphokinase Increased (Cilansetron 2 mg, N=1454)
24 (2%) n (%): TEAE incidence: Bronchitis Acute NOS (Cilansetron 2 mg, N=1454)
20 (1%) n (%): TEAE incidence: Vascular Hypertensive Disorders NEC [5]
25 (2%) n (%): TEAE incidence: Blood Cholesterol Increased (Cilansetron 2 mg, N=1454)
50 (3%) n (%): TEAE incidence: Abdominal Pain Upper (Cilansetron 2 mg, N=1454)
6 (<1%) n (%): TEAE incidence: Abdominal Discomfort (Cilansetron 2 mg, N=1454)
27 (2%) n (%): TEAE incidence: Bronchitis NOS (Cilansetron 2 mg, N=1454)
16 (1%) n (%): TEAE incidence: Aspartate Aminotransferase Increased (Cilansetron 2 mg, N=1454)
2 (<1%) n (%): TEAE incidence: Haemangioma of Liver [1] | TEAE incidence: Hepatobiliary Neoplasms Benign [1] | TEAE incidence: Lipoma NOS [1] | TEAE incidence: Non-Small Cell Neoplasms Malignant of the Respiratory Tract Cell Type Specified [1] | TEAE incidence: Soft Tissue Neoplasms Benign NEC [1] | TEAE incidence: Normal Pregnancy, Labour and Delivery* [2] | TEAE incidence: Pregnancy NOS* [2] | TEAE incidence: Phlebitis NOS [5] | TEAE incidence: Abdominal Findings Abnormal (Cilansetron 2 mg, N=1454) | TEAE incidence: Anal Haemorrhage (Cilansetron 2 mg, N=1454) | TEAE incidence: Anal and Rectal Ulcers and Perforation (Cilansetron 2 mg, N=1454) | TEAE incidence: Blood Glucose Increased (Cilansetron 2 mg, N=1454) | TEAE incidence: Blood Thyroid Stimulating Hormone Increased (Cilansetron 2 mg, N=1454) | TEAE incidence: Blood Urea Increased (Cilansetron 2 mg, N=1454) | TEAE incidence: Body Temperature Decreased (Cilansetron 2 mg, N=1454) | TEAE incidence: Body Tinea (Cilansetron 2 mg, N=1454) | TEAE incidence: Bronchitis Chronic NOS (Cilansetron 2 mg, N=1454)
11%: TEAE incidence: constipation (males)
1 (<1%) n (%): TEAE incidence: Large Cell Carcinoma of the Respiratory Tract Stage Unspecified [1] | TEAE incidence: Lip and Oral Cavity Neoplasms Benign [1] | TEAE incidence: Lung Adenocarcinoma NOS [1] | TEAE incidence: Non-Hodgkin's Lymphoma NOS [1] | TEAE incidence: Non-Hodgkin's Lymphomas NEC [1] | TEAE incidence: Pancreatic Carcinoma NOS [1] | TEAE incidence: Pancreatic Neoplasms Malignant (Excl Islet Cell and Carcinoid) [1] | TEAE incidence: Rectal Cancer NOS [1] | TEAE incidence: Rectal Neoplasms Malignant [1] | TEAE incidence: Salivary Gland Adenoma [1] | TEAE incidence: Urinary Tract Neoplasms Benign [1] | TEAE incidence: Urinary Tract Neoplasms Unspecified Malignancy NEC [1] | TEAE incidence: Genital Haemorrhage NOS (2 mg, Safety Population, 3008, under Reproductive Tract Disorders NEC (Excl Neoplasms)) | TEAE incidence: Bone Therapeutic Procedures NEC [4] | TEAE incidence: Fallopian Tube Therapeutic Procedures* [4] | TEAE incidence: Osteosynthesis [4] | TEAE incidence: Tubal Ligation* [4] | TEAE incidence: Bruising, Ecchymosis and Purpura [5] | TEAE incidence: Circulatory Collapse and Shock [5] | TEAE incidence: Essential Hypertension [5] | TEAE incidence: Non-Site Specific Vascular Disorders NEC [5] | TEAE incidence: Peripheral Embolism and Thrombosis [5] | TEAE incidence: Periphlebitis [5] | TEAE incidence: Petechiae [5] | TEAE incidence: Phlebitis Superficial [5] | TEAE incidence: Shock [5] | TEAE incidence: Varicose Veins NOS [5] | TEAE incidence: Varicose Veins Non-Site Specific [5] | TEAE incidence: Vascular Disorder NOS [5] | TEAE incidence: Venous Thrombosis Deep Limb [5] | TEAE incidence: Abdominal Hernias, Site Unspecified (Cilansetron 2 mg, N=1454) | TEAE incidence: Abdominal Rigidity (Cilansetron 2 mg, N=1454) | TEAE incidence: Abnormal Sleep-Related Events (Cilansetron 2 mg, N=1454) | TEAE incidence: Abscess Limb (Cilansetron 2 mg, N=1454) | TEAE incidence: Abscess NOS (Cilansetron 2 mg, N=1454) | TEAE incidence: Absence Seizures (Cilansetron 2 mg, N=1454) | TEAE incidence: Acute and Chronic Pancreatitis (Cilansetron 2 mg, N=1454) | TEAE incidence: Aerophagia (Cilansetron 2 mg, N=1454) | TEAE incidence: Anal Abscess (Cilansetron 2 mg, N=1454) | TEAE incidence: Anal Ulcer (Cilansetron 2 mg, N=1454) | TEAE incidence: Anal and Colorectal Neoplasms NEC (Cilansetron 2 mg, N=1454) | TEAE incidence: Antibiotic Associated Colitis (Cilansetron 2 mg, N=1454) | TEAE incidence: Aphthous Stomatitis (Cilansetron 2 mg, N=1454) | TEAE incidence: Appendiceal Abscess (Cilansetron 2 mg, N=1454) | TEAE incidence: Appendicitis (Cilansetron 2 mg, N=1454) | TEAE incidence: Arterial Pressure NOS Increased (Cilansetron 2 mg, N=1454) | TEAE incidence: Benign Oral Cavity Neoplasms (Cilansetron 2 mg, N=1454) | TEAE incidence: Bilirubin Urine (Cilansetron 2 mg, N=1454) | TEAE incidence: Blood Bilirubin Unconjugated Increased (Cilansetron 2 mg, N=1454) | TEAE incidence: Blood Creatinine Increased (Cilansetron 2 mg, N=1454) | TEAE incidence: Blood Pressure (Cilansetron 2 mg, N=1454) | TEAE incidence: Bowel Sounds Abnormal (Cilansetron 2 mg, N=1454) | TEAE incidence: Bronchopneumonia NOS (Cilansetron 2 mg, N=1454) | TEAE incidence: Burning Sensation NOS (Cilansetron 2 mg, N=1454) | TEAE incidence: Campylobacter Gastroenteritis (Cilansetron 2 mg, N=1454)
15 (1%) n (%): TEAE incidence: Hypertension NOS [5]
21 (1%) n (%): TEAE incidence: Abdominal Pain Lower (Cilansetron 2 mg, N=1454)
15%: TEAE incidence: constipation (all subjects)
3 (<1%) n (%): TEAE incidence: Uterine Fibroids* [1] | TEAE incidence: Uterine Neoplasms Benign* [1] | TEAE incidence: Age Related Issues [3] | TEAE incidence: Menopause* [3] | TEAE incidence: Orthostatic Hypotension [5] | TEAE incidence: Vascular Hypotensive Disorders [5] | TEAE incidence: Anal Discomfort (Cilansetron 2 mg, N=1454) | TEAE incidence: Blood Potassium Increased (Cilansetron 2 mg, N=1454)
13 (<1%) n (%): TEAE incidence: Blood in Stool (Cilansetron 2 mg, N=1454)
7%: TEAE incidence: nausea (females)
7 (<1%) n (%): TEAE incidence: Anal and Rectal Pains (Cilansetron 2 mg, N=1454) | TEAE incidence: Anal and Rectal Signs and Symptoms (Cilansetron 2 mg, N=1454) | TEAE incidence: Blood Alkaline Phosphatase NOS Increased (Cilansetron 2 mg, N=1454) | TEAE incidence: Blood Uric Acid Increased (Cilansetron 2 mg, N=1454)
19 (1%) n (%): TEAE incidence: Alanine Aminotransferase Increased (Cilansetron 2 mg, N=1454)

From patent publication US20070093520A1, “Method of treatment of diarrhea-predominant irritable bowel syndrome in a subject” (priority 2005, published 2007)
